Test [1] concerns the target human IL-17A / human IL-17RA (Homo sapiens (Human), UniProt Q16552). Put plainly: Human IL-17A biochemical assay (HTRF, blocking of IL-17A binding to IL-17RA). As to conditions: 0.4 nM IL-17A, 0.3 nM IL-17RA, max compound concentration 10 uM. Put shortly:
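Steps: compound dilutions (max 10 uM, 10 points) pre-incubate with 0.4 nM IL-17A for 3 h at RT; 0.3 nM IL-17RA added for 1 h; HTRF antibody pair added for 1 h; fluorescence ratio read and percent inhibition fitted to a four-parameter logistic for IC50.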

The subject of test [2] is IL-17-induced GROα secretion from HT-29 cells. Put plainly: GROα release assay in human colorectal adenocarcinoma epithelial cell (HT-29, ELISA). It counts as cell-based. Conditions: Homo sapiens, HT-29, 48 h, 10 ng/mL IL-17A, highest concentration 10 μM, read-out: Cellular assay HT29 cell/CXCL1 IC50. The method, boiled down:
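IC50 values come from four-parameter fits of GROα levels, quantified by ELISA (450 nm, standard curve) in supernatants. Compounds, 4-fold serially diluted from 10 μM, were mixed 15 min with IL-17A (10 ng/mL final) before 48 h incubation with HT-29 cells at 37°C.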

Experimental findings from patent US20250154138A1, “Small Molecule IL-17A Modulators” (BeiGene, Ltd., priority 2022, published 2025) are described below.

Sequence of human IL-17A / human IL-17RA (Q16552 24-155): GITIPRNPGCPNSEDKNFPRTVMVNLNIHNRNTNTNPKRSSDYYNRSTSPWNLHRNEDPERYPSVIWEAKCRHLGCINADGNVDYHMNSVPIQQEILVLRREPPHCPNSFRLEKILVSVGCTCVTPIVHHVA

As to `CNC(=O)C1(N2CC3(CC3)CNC2=O)Cc2ccc(NC(=O)[C@@H](NC(=O)c3nonc3C)C3CCC(F)(F)CC3)cc2C1` (stereo partly drawn) [Example 138, N-((1S)-1-(4,4-difluorocyclohexyl)-2-((2-(methylcarbamoyl)-2-(6-oxo-5,7-diazaspiro[2.5]octan-5-yl)-2,3-dihydro-1H-inden-5-yl)amino)-2-oxoethyl)-4-methyl-1,2,5-oxadiazole-3-carboxamide], the figures for the IC50 in test [1] and in test [2] were 53.1 nM and 101 nM, respectively.
Regarding `CNC(=O)C1(N2CC(C)(C3CC3)CNC2=O)Cc2ccc(NC(=O)[C@@H](NC(=O)c3ccnn3C)C3CCCCC3)cc2C1` (stereo partly drawn) [Example 113, N-((1S)-1-cyclohexyl-2-((2-(5-cyclopropyl-5-methyl-2-oxotetrahydropyrimidin-1(2H)-yl)-2-(methylcarbamoyl)-2,3-dihydro-1H-inden-5-yl)amino)-2-oxoethyl)-1-methyl-1H-pyrazole-5-carboxamide], the IC50 in test [1] worked out at 53 nM; in test [2], 457 nM.
On to `Cc1nonc1C(=O)N[C@H](C(=O)Nc1ccc2c(c1)CC(c1cn3ccccc3n1)(N1CC3(CC3)CNC1=O)C2)C(C1CC1)C1CC1` (stereo partly drawn) [Example 222, N-((2S)-1,1-dicyclopropyl-3-((2-(imidazo[1,2-a]pyridin-2-yl)-2-(6-oxo-5,7-diazaspiro[2.5]octan-5-yl)-2,3-dihydro-1H-inden-5-yl)amino)-3-oxopropan-2-yl)-4-methyl-1,2,5-oxadiazole-3-carboxamide], for which the IC50 in test [1] amounted to 34.3 nM; in test [2], 66.6 nM.
Taken in the same sequence, the figures for `Cc1nonc1C(=O)N[C@H](C(=O)Nc1ccc2c(c1)CC(C(=O)Nc1cccc(F)c1)(N1CC3(CC3)CNC1=O)C2)C1CCC(F)(F)CC1` (stereo partly drawn) [Example 203, N-((1S)-1-(4,4-difluorocyclohexyl)-2-((2-((3-fluorophenyl)carbamoyl)-2-(6-oxo-5,7-diazaspiro[2.5]octan-5-yl)-2,3-dihydro-1H-inden-5-yl)amino)-2-oxoethyl)-4-methyl-1,2,5-oxadiazole-3-carboxamide] were 63.9 nM and 135 nM.
As for `Cc1nonc1C(=O)N[C@H](C(=O)Nc1ccc2c(c1)CC(c1cn3ccccc3n1)(N1CC3(CC3)CNC1=O)C2)C1CCC(F)(F)CC1` (stereo partly drawn) [Example 223, N-((1S)-1-(4,4-difluorocyclohexyl)-2-((2-(imidazo[1,2-a]pyridin-2-yl)-2-(6-oxo-5,7-diazaspiro[2.5]octan-5-yl)-2,3-dihydro-1H-inden-5-yl)amino)-2-oxoethyl)-4-methyl-1,2,5-oxadiazole-3-carboxamide], the IC50 came out at 118 nM in test [1] and 606 nM in test [2].
Taken in the same sequence, the figures for `CC(C)n1nccc1C(=O)N[C@H](C(=O)Nc1ccc2c(c1)CC(N1C[C@@H](C(F)(F)F)NC1=O)C2)C(C1CC1)C1CC1` (stereo partly drawn) [Example 177, N-((2S)-1,1-dicyclopropyl-3-oxo-3-((2-((S)-2-oxo-4-(trifluoromethyl)imidazolidin-1-yl)-2,3-dihydro-1H-inden-5-yl)amino)propan-2-yl)-1-isopropyl-1H-pyrazole-5-carboxamide] were 53.3 nM and 59.4 nM.
On to `Cc1nonc1C(=O)N[C@H](C(=O)Nc1ccc2c(c1)CC(N1C[C@@H](C(F)(F)F)NC1=O)C2)C1CCCCC1` (stereo partly drawn) [Example 213, N-((1S)-1-cyclohexyl-2-oxo-2-((2-((S)-2-oxo-4-(trifluoromethyl)imidazolidin-1-yl)-2,3-dihydro-1H-inden-5-yl)amino)ethyl)-4-methyl-1,2,5-oxadiazole-3-carboxamide], for which the values for the IC50 in test [1] and in test [2] were 1760 nM and 4520 nM, respectively.
For the molecule `Cc1conc1C(=O)N[C@H](C(=O)Nc1ccc2c(c1)CC(N1C[C@@H](C(F)(F)F)NC1=O)C2)C(C1CC1)C1CC1` (stereo partly drawn) [Example 239, N-((2S)-1,1-dicyclopropyl-3-oxo-3-((2-((S)-2-oxo-4-(trifluoromethyl)imidazolidin-1-yl)-2,3-dihydro-1H-inden-5-yl)amino)propan-2-yl)-4-methylisoxazole-3-carboxamide], the values for the IC50 in test [1] and in test [2] were 977 nM and 3210 nM, respectively.
On to `Cc1nonc1C(=O)N[C@H](C(=O)Nc1ccc2c(c1)CC(C1CCCC1)(N1CC3(CC3)CNC1=O)C2)C(C1CC1)C1CC1` (stereo partly drawn) [Example 230, N-((2S)-1-((2-cyclopentyl-2-(6-oxo-5,7-diazaspiro[2.5]octan-5-yl)-2,3-dihydro-1H-inden-5-yl)amino)-3,3-dicyclopropyl-1-oxopropan-2-yl)-4-methyl-1,2,5-oxadiazole-3-carboxamide], for which the results for the IC50 in test [1] and in test [2] were 4460 nM and 9470 nM, respectively.
Taken in the same sequence, the figures for `CNC(=O)C1(N2CC(Cc3ccc(Cl)cc3)NC2=O)Cc2ccc(NC(=O)[C@@H](NC(=O)c3ccnn3C)C3CCCCC3)cc2C1` (stereo partly drawn) [Example 74, N-((1S)-2-((2-(4-(4-chlorobenzyl)-2-oxoimidazolidin-1-yl)-2-(methylcarbamoyl)-2,3-dihydro-1H-inden-5-yl)amino)-1-cyclohexyl-2-oxoethyl)-1-methyl-1H-pyrazole-5-carboxamide] were 32 nM and 342 nM.
In the case of `COCC1(N2CC(C(F)(F)F)NC2=O)Cc2ccc(NC(=O)[C@@H](NC(=O)c3nonc3C)C(C3CC3)C3CC3)cc2C1` (stereo partly drawn) [Example 225, N-((2S)-1,1-dicyclopropyl-3-((2-(methoxymethyl)-2-(2-oxo-4-(trifluoromethyl)imidazolidin-1-yl)-2,3-dihydro-1H-inden-5-yl)amino)-3-oxopropan-2-yl)-4-methyl-1,2,5-oxadiazole-3-carboxamide], the IC50 was 1270 nM in test [1] and 2320 nM in test [2].
Taken in the same sequence, the figures for `CNC(=O)C1(N2C(=O)NCC2C)Cc2ccc(NC(=O)[C@@H](NC(=O)c3ccnn3C)C3CCCCC3)cc2C1` (stereo partly drawn) [Example 17, N-((1S)-1-cyclohexyl-2-((2-(5-methyl-2-oxoimidazolidin-1-yl)-2-(methylcarbamoyl)-2,3-dihydro-1H-inden-5-yl)amino)-2-oxoethyl)-1-methyl-1H-pyrazole-5-carboxamide] were 2500 nM and 2640 nM.
In the case of `Cc1nonc1C(=O)N[C@H](C(=O)Nc1ccc2c(c1)CC(C(=O)Nc1cncs1)(N1CC3(CC3)CNC1=O)C2)C1CCC(F)(F)CC1` (stereo partly drawn) [Example 215, N-((1S)-1-(4,4-difluorocyclohexyl)-2-oxo-2-((2-(6-oxo-5,7-diazaspiro[2.5]octan-5-yl)-2-(thiazol-5-ylcarbamoyl)-2,3-dihydro-1H-inden-5-yl)amino)ethyl)-4-methyl-1,2,5-oxadiazole-3-carboxamide], the IC50 stood at 33.6 nM in test [1] and 134 nM in test [2].
Taken in the same sequence, the figures for `Cc1nonc1C(=O)N[C@H](C(=O)Nc1ccc2c(c1)CC(C(=O)NCc1cccnn1)(N1CC3(CC3)CNC1=O)C2)C1CCC(F)(F)CC1` (stereo partly drawn) [Example 228, N-((1S)-1-(4,4-difluorocyclohexyl)-2-oxo-2-((2-(6-oxo-5,7-diazaspiro[2.5]octan-5-yl)-2-((pyridazin-3-ylmethyl)carbamoyl)-2,3-dihydro-1H-inden-5-yl)amino)ethyl)-4-methyl-1,2,5-oxadiazole-3-carboxamide] were 15.9 nM and 49.1 nM.
Taken in the same sequence, the figures for `CC(C)[C@@H]1CN(C2(C(=O)N[C@@H](CO)C3CCCCC3)Cc3ccc(NC(=O)[C@@H](NC(=O)c4ccnn4C)C4CCCCC4)cc3C2)C(=O)N1` (stereo partly drawn) [Example 122, N-((1S)-1-cyclohexyl-2-((2-(((R)-1-cyclohexyl-2-hydroxyethyl)carbamoyl)-2-((R)-4-isopropyl-2-oxoimidazolidin-1-yl)-2,3-dihydro-1H-inden-5-yl)amino)-2-oxoethyl)-1-methyl-1H-pyrazole-5-carboxamide] were 10 nM and 13 nM.
`Cc1nonc1C(=O)N[C@H](C(=O)Nc1ccc2c(c1)CC(C(=O)Nc1ccccc1C(C)C)(N1C[C@@H](C(C)C)NC1=O)C2)C(C1CC1)C1CC1` (stereo partly drawn) [Example 288, N-((2S)-1,1-dicyclopropyl-3-((2-((R)-4-isopropyl-2-oxoimidazolidin-1-yl)-2-((2-isopropylphenyl)carbamoyl)-2,3-dihydro-1H-inden-5-yl)amino)-3-oxopropan-2-yl)-4-methyl-1,2,5-oxadiazole-3-carboxamide]: the IC50 in test [1] came out at 110 nM; in test [2] it was 408 nM.
Consider `Cc1nonc1C(=O)N[C@H](C(=O)Nc1ccc2c(c1)CC(C(=O)Nc1ccccc1C(F)F)(N1C[C@@H](C(C)C)NC1=O)C2)C(C1CC1)C1CC1` (stereo partly drawn) [Example 268, N-((2S)-1,1-dicyclopropyl-3-((2-((2-(difluoromethyl)phenyl)carbamoyl)-2-((R)-4-isopropyl-2-oxoimidazolidin-1-yl)-2,3-dihydro-1H-inden-5-yl)amino)-3-oxopropan-2-yl)-4-methyl-1,2,5-oxadiazole-3-carboxamide], for which the figures for the IC50 in test [1] and in test [2] were 88.1 nM and 248 nM, respectively.
With `CNC(=O)C1(N2C[C@@H](Cc3cccs3)NC2=O)Cc2ccc(NC(=O)[C@@H](NC(=O)c3ccnn3C)C3CCCCC3)cc2C1` (stereo partly drawn) [Example 57, N-((1S)-1-cyclohexyl-2-((2-(methylcarbamoyl)-2-((R)-2-oxo-4-(thiophen-2-ylmethyl)imidazolidin-1-yl)-2,3-dihydro-1H-inden-5-yl)amino)-2-oxoethyl)-1-methyl-1H-pyrazole-5-carboxamide], the IC50 in test [1] came to 334 nM; in test [2], 2150 nM.
Taken in the same sequence, the figures for `CC(C1Cc2ccc(NC(=O)[C@@H](NC(=O)c3ccnn3C(C)C)C(C3CC3)C3CC3)cc2O1)N1C[C@@H](C(F)(F)F)NC1=O` (stereo partly drawn) [Example 277, N-((2S)-1,1-dicyclopropyl-3-oxo-3-((2-(1-((S)-2-oxo-4-(trifluoromethyl)imidazolidin-1-yl)ethyl)-2,3-dihydrobenzofuran-6-yl)amino)propan-2-yl)-1-isopropyl-1H-pyrazole-5-carboxamide] were 560 nM and 1280 nM.
